Ends that are not written are not given here.

One test has as its system THP-1 cells. The test can be described thus: CD86 and CD54 expression in THP-1 cells (flow cytometry, RFI). It is filed as cell-based, human. The settings on record: overnight culture, relative fluorescence intensity. The protocol:
THP-1 cells were seeded at a density of 2.0×10^5 cells/mL in 50 mL of RPMI1640 medium containing 10% FBS and 0.05 mM mercaptoethanol in a 75-cm^2 flask, and precultured for 48 hours.
The precultured THP-1 cells were harvested by centrifugation and suspended at 2.0×10^6 cells/mL in RPMI1640 medium containing 10% FBS and 0.05 mM mercaptoethanol, and the cell suspension was added to a 24-well plate at 500 μL/well. Test peptides were separately dissolved in the same medium as above, and 500 μL of each of the solutions was added to separate wells containing the cell suspension.
After overnight culture, the cells were harvested by centrifugation and washed twice with PBS containing 0.1% BSA (FACS buffer). The cells were then dispersed in 600 μL of FACS buffer containing 0.01% human γ-globulin solution (Sigma, G2388), and incubated at 4° C. for 10 minutes for blocking of Fc receptors.
After that, the cell suspension was divided into three 180-μL aliquots in 1.5-mL tubes, the tubes were centrifuged, and the cell pellets were prepared for the reaction with antibodies. To the cell pellets, FITC-labeled antibody solutions separately diluted to appropriate concentrations in FACS buffer were added in a volume of 50 μL, and incubation was performed at 4° C. for 30 minutes. The antibodies used were CD86 antibody (Pharmingen; Cat#555657), CD54 antibody (Dako; Cat# F7143) and isotype control (Mouse IgG) antibody (Dako; Cat#X0927). After the 30-minute incubation, the cells were harvested by centrifugation and washed twice with FACS buffer. The cells harvested by centrifugation were dispersed in 200 μL of FACS buffer containing 0.625 μg/mL propidium iodide, and the expression levels of the cell surface antigens on 1×10^4 viable cells were measured by flow cytometry. Forward and side scatter gating was not used for the analysis, and the relative fluorescence intensity (RFI) was calculated from the measured mean fluorescence intensities (MFI) by the following formula. […]
When the viability of the non-treated control cells (vehicle treatment cells) was 90% or more, the test was considered valid. In the case where the cell viability at a particular sample concentration used in the test was lower than 50%, the data of the CD54 level at the concentration was excluded from the evaluation.
As to “HRLKRLRKRLKRK [AAP-12, seven N-terminal amino acids of OSK-1 deleted]”, the “expression of CD54” value is “considerably less active than OSK-1” and the “expression of CD86” value was “considerably less active than OSK-1”.

Consider “ELKLIFLHRLKRLRKR [AAP-2, C-terminal LKRK of OSK-1 deleted]”, for which the “expression of CD54” value is “considerably less active” and the “expression of CD86” value is on record as “considerably less active”.

Consider “ELKLIFLHRLKRLR [AAP-3, C-terminal KRLKRK of OSK-1 deleted]”, for which the “expression of CD54” value was “considerably less active” and the “expression of CD86” value is listed as “considerably less active”.

“LKLIFLHRLKRMRKRLdKRK (LKLIFLHRLKRMRKRLKRK; not fully specified (residues 16, 17)) [SR-08, reference compound]”: the “expression of CD54” value is “OSK-1 was more highly active for inducing CD54 expression than SR-07 and SR-08”.

For the substance LIFLHRLKRLRKRL [AAP-6], the “expression of CD54” value was “no considerable reduction in the activity was observed” and the “expression of CD86” value is “no considerable reduction in the activity was observed”.

FLHRLKRLRKRL [AAP-11]: the “expression of CD54” value is recorded as “no considerable reduction in the activity was observed” and the “expression of CD86” value was “no considerable reduction in the activity was observed”.

On to “MLKLIFLHRLKRMRKRLdKRK (MLKLIFLHRLKRMRKRLKRK; not fully specified (residues 17, 18)) [SR-07, reference compound]”, for which the “expression of CD54” value is “OSK-1 was more highly active for inducing CD54 expression than SR-07 and SR-08”.

Another test has as its system Human hair follicle dermal papilla cells. Briefly: Production of growth factors (KGF, HGF, VEGF) by hair follicle dermal papilla cells (ELISA). The settings on record: 5 days. It is filed as cell-based. The protocol:
Human hair follicle dermal papilla cells in DMEM medium containing 10% FBS were seeded at 3×10^4 cells/well on a 24-well plate and cultured in a CO2 incubator overnight. On the following day, the medium was removed, test peptide solutions in DMEM medium containing 1% FBS were added to the plate, and the cells were cultured in a CO2 incubator for 5 days. The culture supernatant was harvested, and the KGF, HGF and VEGF concentrations in the culture supernatant were measured by ELISA.
In this experiment, OSK-1 and AAP-11 were used as the test peptides, and the concentrations of KGF, HGF and VEGF were measured in the same manner as in Example 9.
In general terms: ELISA stands for enzyme-linked immunosorbent assay.
As to “ELKLIFLHRLKRLRKR [AAP-2, C-terminal LKRK of OSK-1 deleted]”, the “production of the growth factors (KGF, HGF and VEGF concentrations in the culture supernatant)” value (“production of the growth factors” for short) was “less effective than OSK-1”.

“ELKLIFLHRLKRLR [AAP-3, C-terminal KRLKRK of OSK-1 deleted]”: the “production of the growth factors” value is “less effective than OSK-1”.

On to FLHRLKRLRKRL [AAP-11], for which the “production of the growth factors” value is given as “promoted the production of the indicated growth factors in a concentration dependent manner”.

The record behind these values is patent publication US10112978B2, “Peptide and use thereof” (OSAKA UNIVERSITY, priority 2014, dated 2018).
